# From patent US5380834A, “Immuno-suppressive agent” (Ishihara Sangyo Kaisha Ltd., priority 1992, dated 1995)
# Read-outs that look alike come from different tables or passages of the source.
# Legend:
# [1] = tested on: IgGl antibody production from murine spleen B cells; assay: Effects on the IgGl antibody production from murine spleen cells (LPS + IL4); assay type: cell-based, BALB/c mouse; conditions: Mus musculus, B-cell, 168 h, read-out: IC50 value, IgGl antibody production
# Description: (§1) Using murine spleen B cells, the effects of the compound of the formula (I) on the IgGl, IgM and IgE antibody production induced by the stimulation by LPS (lipopolysaccharide; Product No. 520.02051, manufactured by Wako Junyaku) and IL4 (interleukin 4), were studied. Namely, spleen cells of a BALB/c mouse were treated with a murine anti-Thy-1 antibody (obtained from Chiba University) and a rabbit complement (Product No. 3051, manufactured by cedarlane) to remove T cells, and 3×10^5 spleen B cells were cultured for 7 days together with 10 μg/ml of LPS, 100 U/ml of mouse-recombinant IL4 (Product No. MIL-4C, manufactured by Genzyme) and each concentration (from […]) of the compound of the formula (I) on a microplate with 96 wells by a 10% FCS-RPMI solution (in an incubator, 5% CO2, at 37° C.).
# (§2) For the basic procedure of this test, reference was made to The Journal of Immunology, Vol. 136, p. 4538, (1986).
# (§3) The amount of each antibody in the cell culture supernatant hereby obtained, was measured by the following enzyme-immunoassay. Firstly, on a microplate with 96 wells, 1 μg/ml of a rabbit anti-mouse IgGl antibody (Product No. 36243, manufactured by Cappel), 1 μg/ml of a goat anti-mouse IgM antibody (Product No. 0611-0201, manufactured by Cappel) or 10 μg/ml of a rat anti-mouse IgE monoclonal antibody (Product No. LO-ME-2, manufactured by Experimental Immunology) was coated (50 μl/well, at room temperature for 60 minutes), and then a nonspecific bond was blocked by a 0.1% bovine serum albumin-containing 10 mM sodium phosphate buffer (pH 7.2) (at room temperature for 60 minutes). Then, the above-mentioned cell culture supernatant or its diluted solution was added in an amount of 50 μl/well and reacted at room temperature for 60 minutes. Further, an alkaline phosphatase-labeled rabbit anti-mouse IgGl antibody (Product No. 61-0122, manufactured by Zymet) diluted 1,000 times, an alkaline phosphatase-labeled rabbit anti-mouse IgM antibody (Product No. 61-6822, manufactured by Zymet) diluted 2,000 times, or an alkaline phosphatase-labeled goat anti-mouse IgE antibody (Product No. PA-284, manufactured by Binding Site) diluted 500 times was added in an amount of 50 μl/well and reacted at room temperature for 60 minutes. 100 μl/well of a 10% diethanol amine buffer solution (pH 9.8) containing p-nitrophenyl phosphate as an enzyme substrate, was reacted, and the absorbance at 405 nm was measured. The amount of each antibody was calculated from the calibration curve of each standard antibody, and the IC50 value of the compound of the formula (I) on the antibody production was calculated using as the control value a value obtained in the absence of the compound of the formula (I).
# murine thymocytes = assay: Effects on the mitogenic response by murine thymocytes (Con A stimulation, 3H-TdR uptake); assay type: cell-based, BALB/c murine; conditions: Mus musculus, Thymocyte, read-out: IC50 value, a (mitogenic response of murine thymocytes)
# Description: Using BALB/c murine thymocytes, the effect of the compound of the formula (I) on the mitogenic response of lymphocytes to the stimulation by concanavalin A (hereinafter referred to simply as Con A, Product No. L-1000, manufactured by Vector Laboratories) was studied. Namely, 4×10^5 murine thymocytes were cultured for 48 hours on a microplate with 96 wells in a RPMI1640 solution containing 10% of a fetal bovine serum (hereinafter referred to simply as a 10% FCS-RPMI solution) together with Con A (5 μg/ml) and the compound of the formula (I) (in an incubator, 5% CO2, at 37° C.). Then, 0.5 μCi of ^3 H-thymidine (hereinafter referred to simply as ^3 H-TdR) was added thereto, and the mixture was further cultured for 4 hours. Then, cells were collected by a cell harvester, and the radioactivity (dpm) of ^3 H-TdR uptaken into cells was measured. Such measured amounts of ^3 H-TdR uptaken into the cells were used as indices of the mitogenic response of the murine thymocytes, and the radioactivity at each concentration (from 0.001 to 1,000 μg/ml) of the compound of the formula (I) was compared with the control value treated solely by Con A, to calculate IC50 value. In these Tables 12 and 13, the results of murine thymocytes are shown by (a).
# For the basic procedure of this test, reference was made to Selected methods in cellular immunology, p. 144-146 (translated by Katsuyuki Imai et al., published by Rikogakusha, (1982)).
# [2] = tested on: IgM antibody production from murine spleen B cells; assay: Effects on the IgM antibody production from murine spleen cells (LPS + IL4); assay type: cell-based, BALB/c mouse; conditions: Mus musculus, B-cell, 168 h, read-out: IC50 value, IgM antibody production
# Description: as §1, §2, §3
# murine bone mallow cells = assay: Effects on the murine bone mallow cells (proliferation, 3H-TdR uptake); assay type: cell-based, BALB/c mouse; conditions: Mus musculus
# Description: Bone mallow cells were removed from the femur of a BALB/c mouse and suspended in a 10% FCS-RPMI solution. The cell suspension was put into a plastic Petri dish having a diameter of 10 cm and left to stand still (in an incubator, 5% CO2, at 37° C.). Two hours later, only floating cells were recovered, and adhesion cells were removed. 1×10^5 floating cells were cultured for 48 hours together with a 20% culture supernatant of L929 fibroblastoma and the compound of the formula (I) on a microplate with 96 wells by a 10% FCS-RPMI solution (in an incubator, 5% CO2, at 37° C.). Then, 0.5 μCi of ^3 H-TdR was added thereto, and the mixture was further cultured for 4 hours. Then, cells were collected by a cell harvester, and the radioactivity (dpm) of ^3 H-TdR uptaken into the cells, was measured. Such measured amounts of ^3 H-TdR uptaken into the cells were used as indices for the proliferation of bone mallow cells, and the radioactivity at each concentration (from 0.001 to 1,000 μg/ml) of the compound of the formula (I) was compared with the control value where the L929 culture supernatant was added alone, to calculate the IC50 value. In these Tables 12 and 13, the results of the bone mallow cells are shown by (c).
# For the basic procedure of this test, reference was made to Seikagakujikken Koza compiled by Japan Biochemistry Association, Vol. 5, p. 266-270 (published by Tokyo Kagaku Dojin in 1986).
# [3] = tested on: IgE antibody production from murine spleen B cells; assay: Effects on the IgE antibody production from murine spleen cells (LPS + IL4); assay type: cell-based, BALB/c mouse; conditions: Mus musculus, B-cell, 168 h, read-out: IC50 value, IgE antibody production
# Description: as §1, §2, §3
# [4] = tested on: murine mixed lymphocyte reaction (spleen cells of BALB/c and C57BL/6 mice); assay: Effects on the murine mixed lymphocyte reaction (3H-TdR uptake); assay type: cell-based; conditions: Mus musculus, BALB/c + C57BL/6 spleen cells, 48 hours, read-out: IC50 value, b (murine mixed lymphocyte reaction)
# Description: Using spleen cells of BALB/c and C57BL/6 mice, the effect of the compound of the formula (I) on the murine mixed lymphocyte reaction in both sides, was studied. Namely, spleen cells of both types of mice were mixed in an equal amount of 5×10^5 cells each, and the mixed cells were cultured together with the compound of the formula (I) for 48 hours on a microplate with 96 wells by a 10% FCS-RPMI solution (in an incubator, 5% CO2, at 37° C.). Then, 0.5 μCi of ^3 H-TdR was added thereto, and the mixture was further cultured for from 16 to 18 hours. Then, cells were collected by a cell harvester, and the radioactivity (dpm) of ^3 H-TdR uptaken into the cells, was measured. Such measured amounts of ^3 H-TdR uptaken into the cells were used as indices for the mixed lymphocyte reaction, and the radioactivity at each concentration (from 0.001 to 1,000 μg/ml) of the compound of the formula (I) was compared with the non-treated control value, to calculate the Ic50 value.
# For the basic procedure for this test, reference was made to Selected methods in cellular immunology, p. 147-149 (translated by Katsuyuki Imai et al., published by Rikogakusha, (1982)).
# [5] = spleen B cells, LPS 10 μg/ml, IL4 100 U/ml, 7 days, enzyme-immunoassay
# [6] = BALB/c thymocytes, Con A 5 μg/ml, 48 hours, 3H-TdR uptake
# [7] = bone marrow cells, 20% L929 culture supernatant, 48 hours, 3H-TdR uptake, Tables 12-15, read-out: IC50 value, c (murine bone mallow cells)
Compound,IC50 [1],IC50 (murine thymocytes),IC50 [2],"IC50 (murine bone mallow cells; L929, read-out: IC50 value, c (murine bone mallow cells))",IC50 [3],"IC50 [1, 5]",IC50 (murine thymocytes; [6]),"IC50 [2, 5]",IC50 [4],IC50 (murine bone mallow cells; [7]),"IC50 [3, 5]"
Nc1ccccc1C(=O)O[C@H]1C=C[C@H]2CO[C@@H]1O2 [Compound 19],24 µg/mL,0.39 µg/mL,76 µg/mL,160 µg/mL,32 µg/mL,,,,,,
O=C(O[C@H]1C=C[C@H]2CO[C@@H]1O2)C1CCCCC1 [Compound 4],,,,,,100 µg/mL,450 µg/mL,56 µg/mL,140 µg/mL,160 µg/mL,11 µg/mL
CCCCCCCCCCCCCCCC(=O)O[C@@H]1C=C[C@H]2CO[C@@H]1O2 [Compound 109],,,,,,< 0.1 µg/mL,550 µg/mL,31 µg/mL,740 µg/mL,> 1000 µg/mL,< 0.1 µg/mL
CCCCO[C@H]1C=C[C@H]2CO[C@@H]1O2 [Compound 40],,,,,,0.067 µg/mL,160 µg/mL,110 µg/mL,> 1000 µg/mL,> 1000 µg/mL,0.0026 µg/mL
"O=C(CCCCCCCCCCCCCCCO)O[C@H]1C=C[C@H]2CO[C@@H]1O2 [Compound 49, 1,6-anhydro-3,4-dideoxy-2-O-(16-hydroxy)hexadecanoyl-β-D-threo-hex-3-enopyranose]",,,,,,< 0.1 µg/mL,11 µg/mL,0.43 µg/mL,32 µg/mL,41 µg/mL,< 0.1 µg/mL
CCCC[C@]1(O)C=C[C@H]2CO[C@@H]1O2 [Compound 30],,,,,,190 µg/mL,110 µg/mL,150 µg/mL,540 µg/mL,190 µg/mL,24 µg/mL
O=C(O[C@H]1C=C[C@H]2CO[C@@H]1O2)c1ccccc1 [Compound 5],,,,,,300 µg/mL,130 µg/mL,170 µg/mL,130 µg/mL,150 µg/mL,71 µg/mL
C/C=C/C(=O)O[C@H]1C=C[C@H]2CO[C@@H]1O2 [Compound 3],,,,,,2.4 µg/mL,0.0044 µg/mL,< 0.001 µg/mL,0.0044 µg/mL,130 µg/mL,0.024 µg/mL
O=C(Oc1ccccc1)O[C@H]1C=C[C@H]2CO[C@@H]1O2 [Compound 22],,,,,,670 µg/mL,300 µg/mL,230 µg/mL,130 µg/mL,> 1000 µg/mL,4 µg/mL
CCCCCC(=O)O[C@H]1C=C[C@H]2CO[C@@H]1O2 [Compound 6],,,,,,450 µg/mL,250 µg/mL,330 µg/mL,540 µg/mL,270 µg/mL,210 µg/mL
"C=C[C@]1(O)C=C[C@H]2CO[C@@H]1O2 [Compound 27, 1,6-anhydro-3,4-dideoxy-2-C-vinyl-β-D-threo-hex-3-enopyranose]",,,,,,34 µg/mL,49 µg/mL,36 µg/mL,180 µg/mL,44 µg/mL,24 µg/mL
O=C(CCCCCBr)O[C@H]1C=C[C@H]2CO[C@@H]1O2 [Compound 13],,,,,,< 0.001 µg/mL,33 µg/mL,< 0.001 µg/mL,190 µg/mL,330 µg/mL,0.32 µg/mL
CCCCCCCCCCCCCCCC(=O)O[C@@]1(C)C=C[C@H]2CO[C@@H]1O2 [Compound 33],,,,,,340 µg/mL,,5.6 µg/mL,,> 1000 µg/mL,460 µg/mL
"CO[C@H]1C=C[C@H]2CO[C@@H]1O2 [Compound 41, 1,6-anhydro-3,4-dideoxy-2-O-methyl-β-D-threo-hex-3-enopyranose]",,,,,,670 µg/mL,,> 1000 µg/mL,,> 1000 µg/mL,0.95 µg/mL
O=C(/C=C/c1ccccc1)O[C@H]1C=C[C@H]2CO[C@@H]1O2 [Compound 18],,,,,,< 0.001 µg/mL,,0.68 µg/mL,,370 µg/mL,< 0.001 µg/mL
CC(=O)O[C@H]1C=C[C@H]2CO[C@@H]1O2 [Compound 9],,,,,,790 µg/mL,,720 µg/mL,,> 1000 µg/mL,320 µg/mL
CCCCCCCC/C=C\CCCCCCCC(=O)O[C@H]1C=C[C@H]2CO[C@@H]1O2 [Compound 8],,,,,,810 µg/mL,,340 µg/mL,,> 1000 µg/mL,310 µg/mL
"COC(=O)O[C@H]1C=C[C@H]2CO[C@@H]1O2 [Compound 21, 1,6-anhydro-3,4-dideoxy-2-O-methoxycarbonyl-β-D-threo-hex-3-enopyranose]",,,,,,500 µg/mL,,130 µg/mL,,> 1000 µg/mL,17 µg/mL
